{"source": "paper PMC2916031", "about": "(Journal of molecular biology, 2010)", "key": {"[1]": {"molecular_target": "full-length TbMEAT1 (Trypanosoma brucei, UniProt C7AJA4)", "sequence (C7AJA4 whole entry)": "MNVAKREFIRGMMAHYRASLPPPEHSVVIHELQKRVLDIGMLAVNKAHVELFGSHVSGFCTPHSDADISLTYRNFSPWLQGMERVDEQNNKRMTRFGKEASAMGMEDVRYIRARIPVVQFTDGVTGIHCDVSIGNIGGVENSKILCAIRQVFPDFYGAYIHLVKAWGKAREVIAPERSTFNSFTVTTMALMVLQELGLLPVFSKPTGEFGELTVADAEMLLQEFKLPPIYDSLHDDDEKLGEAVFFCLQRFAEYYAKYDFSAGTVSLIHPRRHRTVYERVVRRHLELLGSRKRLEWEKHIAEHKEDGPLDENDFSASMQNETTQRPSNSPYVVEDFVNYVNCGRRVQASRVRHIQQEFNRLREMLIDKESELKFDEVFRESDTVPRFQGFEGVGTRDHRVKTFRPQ", "assay": "U-addition to […]'-labelled RNA, denaturing gel", "assay_type": "biochemical", "conditions": "100 µM UTP, 300 nM enzyme, 1 µM RNA, Mg acetate, pH 8.0, 27 °C"}, "[2]": {"molecular_target": "C-terminally truncated MEAT1 (Trypanosoma brucei, UniProt C7AJA4)", "sequence (C7AJA4 1-381)": "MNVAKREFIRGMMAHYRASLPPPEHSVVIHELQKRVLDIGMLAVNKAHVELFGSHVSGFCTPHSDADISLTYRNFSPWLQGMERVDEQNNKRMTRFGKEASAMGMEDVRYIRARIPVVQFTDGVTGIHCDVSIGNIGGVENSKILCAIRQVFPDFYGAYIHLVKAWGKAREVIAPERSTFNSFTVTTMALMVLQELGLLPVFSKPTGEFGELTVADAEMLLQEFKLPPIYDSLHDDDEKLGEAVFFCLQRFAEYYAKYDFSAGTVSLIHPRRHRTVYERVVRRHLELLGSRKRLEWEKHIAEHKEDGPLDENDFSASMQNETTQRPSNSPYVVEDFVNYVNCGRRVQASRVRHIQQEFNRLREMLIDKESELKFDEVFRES", "assay": "U-addition to […]'-labelled RNA, denaturing gel", "assay_type": "biochemical", "conditions": "100 µM UTP, 300 nM enzyme, 1 µM RNA, Mg acetate, pH 8.0, 27 °C"}}, "data": [{"smiles": "O=c1ccn([C@@H]2O[C@H](COP(=O)(O)OP(=O)(O)OP(=O)(O)O)[C@@H](O)[C@H]2O)c(=O)[nH]1", "note": "[UTP]", "values": [{"measurement": "U-addition to 5'-labelled RNA, denaturing gel", "setting": "[1]", "result": "U-addition patterns for full-length TbMEAT1"}, {"measurement": "U-addition to 5'-labelled RNA, denaturing gel", "setting": "[2]", "result": "neither limited proteolysis nor genetically-engineered C-terminal deletion had any discernable effects on enzymatic activity"}]}]}
